Columns and labels:
Type in all cases: in vivo
[1] = system: Ctenocephalides felis; experiment: Ctenocephalides felis in vitro contact test with adult cat fleas; conditions: application rate 5 μg/cm^2 (500 g/ha); after 48 h; fleas dead or moribund
Outline: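 Adult Ctenocephalides felis (5-10 per tube) were held 48 h at room temperature in tubes whose inner walls carried dried active ingredient, e.g. 5 μg/cm^2 from a 900 ppm acetone coating. Percent efficacy reflects fleas motionless or uncoordinated after being knocked to the tube base.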

[2] = system: Rhipicephalus sanguineus; experiment: Rhipicephalus sanguineus in vitro contact test with adult brown dog ticks; conditions: application rate 5 μg/cm^2 (500 g/ha); after 48 h; ticks dead or moribund
Outline: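 Test tubes (25 ml) were coated by dissolving active ingredient in acetone p.a., diluting to the required concentration, and spreading 250 μl over the inner walls and base on an orbital shaker at 30 rpm for 2 h. Once dry, 5-10 adult Rhipicephalus sanguineus were added, and tubes were capped with perforated lids and kept horizontal in darkness at room temperature. At 48 h, ticks were knocked down and heated at 45-50° C. for up to 5 min. Those unable to climb away were counted dead or moribund, and efficacy ran from 0% to 100%.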

[3] = system: Boophilus microplus; experiment: Boophilus microplus injection test; conditions: application rate 20 μg/animal; injection into abdomen; assessed after 7 days
Outline: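 Engorged adult female ticks, five per dose, were injected in the abdomen with 1 μl of active ingredient diluted in dimethyl sulphoxide. Animals were kept in dishes under climate control, and egg fertility was assessed after 7 days.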

[4] = system: Ctenocephalides felis; experiment: Ctenocephalides felis oral test; conditions: application rate 100 ppm in citrated cattle blood; after 2 days
Outline: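 Percentage mortality recorded at 2 days, where 0% means no fleas killed. Compound dissolved in DMSO and diluted in citrated cattle blood, which roughly 20 unfed adult C. felis imbibe via a parafilm membrane.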

[5] = system: Lucilia cuprina; experiment: Lucilia cuprina test; conditions: application rate 100 ppm; L1 larvae; after 2 days
Outline: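 Mortality read at 2 days as percent larvae killed (100% = all, 0% = none). Test used roughly 20 first-instar larvae on minced horsemeat dosed with water-diluted DMSO formulation of compound.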

[6] = system: Musca domestica; experiment: Musca domestica test; conditions: application rate 100 ppm; adult houseflies; after 2 days
Method: Solvent: dimethyl sulphoxide
To produce an appropriate active ingredient formulation, 10 mg of active ingredient are mixed with 0.5 ml of dimethyl sulphoxide, and the concentrate is diluted with water to the desired concentration.
Vessels containing a sponge treated with sugar solution and the active ingredient formulation of the desired concentration are populated with 10 adult houseflies (Musca domestica).
After 2 days, the kill in % is determined. 100% means that all of the flies have been killed; 0% means that none of the flies have been killed.

[7] = system: Myzus persicae; experiment: Myzus persicae spray test; conditions: application rate 100 g/ha; after 6 days
Method: Myzus persicae—Spray Test
To produce an appropriate active ingredient formulation, 1 part by weight of active ingredient is dissolved using the specified parts by weight of solvent and made up with water containing an emulsifier concentration of 1000 ppm until the desired concentration is attained. To produce further test concentrations, the preparation is diluted with emulsifier-containing water.
Discs of Chinese cabbage leaves (Brassica pekinensis) infested by all stages of the green peach aphid (Myzus persicae) are sprayed with an active ingredient formulation of the desired concentration.
After 6 days, efficacy in % is determined. 100% means that all the aphids have been killed; 0% means that none of the aphids have been killed.

[8] = system: Phaedon cochleariae; experiment: Phaedon cochleariae spray test; conditions: application rate 100 g/ha; larvae; after 7 days
Outline: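 Mortality of Phaedon larvae, in %, was read 7 days after release onto sprayed, dried Brassica pekinensis leaf discs. Test dilutions were prepared in water with 1000 ppm emulsifier. A score of 0% means no larvae died and 100% means all were killed.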

[9] = system: Spodoptera frugiperda; experiment: Spodoptera frugiperda spray test; conditions: application rate 100 g/ha; caterpillars; after 7 days
Outline: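 Percent kill of armyworm caterpillars was scored 7 days after they were placed on dried, sprayed Zea mays leaf discs. Spray solutions were made by dissolving active ingredient in solvent and diluting with 1000 ppm emulsifier water.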

[10] = system: Tetranychus urticae; experiment: Tetranychus urticae spray test, OP-resistant; conditions: application rate 100 g/ha; after 6 days
Outline: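 Percent kill is assessed 6 days after spraying infested Phaseolus vulgaris leaf discs, with all mite stages present. Compound is applied as a solvent/emulsifier aqueous formulation at the desired concentration.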

Row | SMILES | efficacy [1] [%] | efficacy [2] [%] | efficacy (laying of fertile eggs) [3] [%] | efficacy (kill in %) [4] [%] | efficacy (kill in %) [5] [%] | efficacy (kill in %) [6] [%] | efficacy [7] [%] | efficacy [8] [%] | efficacy [9] [%] | efficacy [10] [%]
1 | Cn1nc(C(F)(F)C(F)(F)F)c(C(F)(F)F)c1-n1cc(-c2cccc(NC(=O)c3ccc(F)cc3)c2)cn1 [Example 1-003] | 100 | 100 | 100 | 100 | 100 | 100 | 90 | 100 | 100 | 100
2 | Cn1nc(C(F)(F)C(F)(F)F)c(C(F)(F)F)c1-n1cc(-c2cccc(NC(=O)c3ccnc(Cl)c3)c2)cn1 [Example 1-006] | 100 |  | 100 | 100 | 100 | 100 | 100 | 100 | 100 | 100
3 | Cn1cc(C(=O)Nc2cccc(-c3cnn(-c4c(C(F)(F)F)c(C(F)(F)C(F)(F)F)nn4C)c3)c2)cn1 [Example 1-019] |  |  | 100 | 100 | 100 | 100 | 90 | 100 | 100 | 100
4 | CCC(=O)Nc1cc(-c2cnn(-c3c(C(F)(F)F)c(C(F)(F)C(F)(F)F)nn3C)c2)ccc1F [Example 1-076] | 100 | 100 | 100 | 100 | 95 |  | 100 | 100 | 100 | 90
5 | Cn1nc(C(F)(F)C(F)(F)F)c(C(F)(F)F)c1-n1cc(-c2ccc(F)c(NC(=O)c3cncc(F)c3)c2)cn1 [Example 1-086] | 100 | 100 | 100 | 100 | 100 | 100 | 100 | 100 | 100 | 90
6 | Cc1oncc1C(=O)Nc1cc(-c2cnn(-c3c(C(F)(F)F)c(C(F)(F)C(F)(F)F)nn3C)c2)ccc1F [Example 1-081] | 100 | 100 | 100 | 100 | 100 |  | 100 | 100 | 100 | 100
7 | CC(C)C(=O)Nc1cc(-c2cnn(-c3c(C(F)(F)F)c(C(F)(F)C(F)(F)F)nn3C)c2)ccc1F [Example 1-064] | 100 | 100 | 100 | 100 | 100 |  | 100 | 100 | 100 | 100
8 | Cn1nc(C(F)(F)C(F)(F)F)c(C(F)(F)F)c1-n1cc(-c2ccc(F)c(NC(=O)c3ncccn3)c2)cn1 [Example 1-036] | 100 | 100 | 100 | 100 | 100 | 100 | 100 | 100 | 100 | 
